Experimental data taken from patent publication US10590113B2, “6-hydroxy-4-oxo-1,4-dihydropyrimidine-5-carboxamides as APJ agonists” (priority 2016, dated 2020).

target: T1, human APJ receptor (Homo sapiens, UniProt P35414); assay: Intracellular cAMP Accumulation Assay (APJ hcAMP, HTRF); format: cell-based; details: human APJ, cAMP accumulation; potency range class; read-out: hAPJ cAMP EC50 Potency range
T1 construct: expressed in transfected cells; host or cells: HEK293
T1 sequence (P35414 1-380): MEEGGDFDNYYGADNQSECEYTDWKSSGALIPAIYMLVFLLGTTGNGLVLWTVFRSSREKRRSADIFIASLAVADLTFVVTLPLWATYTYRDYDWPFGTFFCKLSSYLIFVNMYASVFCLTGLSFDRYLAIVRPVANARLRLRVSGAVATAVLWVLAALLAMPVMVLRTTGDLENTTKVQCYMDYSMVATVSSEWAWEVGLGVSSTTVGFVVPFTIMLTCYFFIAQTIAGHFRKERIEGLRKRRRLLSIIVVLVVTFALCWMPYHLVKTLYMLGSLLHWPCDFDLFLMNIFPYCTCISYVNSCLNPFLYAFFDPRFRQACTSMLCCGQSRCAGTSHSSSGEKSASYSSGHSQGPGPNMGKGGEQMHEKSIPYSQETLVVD
Outline: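 Stably transfected HEK293 cells (5,000/well) incubated 30 min at room temperature with serially diluted compound, […] and 2 μM forskolin. cAMP measured by HTRF after 60 min with detection reagents, quantified against a cAMP standard curve; EC50 from variable-slope sigmoidal fit of inhibition of forskolin-stimulated cAMP.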

Structure (SMILES) | EC50
COc1cccc(OC)c1-n1c(CC2CC2)nc(=O)c(C(=O)N2CCC(c3ccccc3F)C2)c1O (single isomer, unassigned) [Example 226, 2-(cyclopropylmethyl)-1-(2,6-dimethoxyphenyl)-5-[3-(2-fluorophenyl)pyrrolidine-1-carbonyl]-6-hydroxy-1,4-dihydropyrimidin-4-one] | 0.01 to 10 nM
COc1cccc(OC)c1-n1c(CC2CC2)nc(=O)c(C(=O)N2CCC(c3ccc(Cl)cc3)C2)c1O (single isomer, unassigned) [Example 228, 5-[3-(4-chlorophenyl)pyrrolidine-1-carbonyl]-2-(cyclopropylmethyl)-1-(2,6-dimethoxyphenyl)-6-hydroxy-1,4-dihydropyrimidin-4-one] | 0.01 to 10 nM
COc1cccc(OC)c1-n1c(-c2ccc(F)cc2)nc(=O)c(C(=O)N2CCC(c3ccccc3Cl)C2)c1O (single isomer, unassigned) [Example 229, 5-[3-(2-chlorophenyl)pyrrolidine-1-carbonyl]-1-(2,6-dimethoxyphenyl)-2-(4-fluorophenyl)-6-hydroxy-1,4-dihydropyrimidin-4-one] | 0.01 to 10 nM
COc1cccc(OC)c1-n1c(CC2CC2)nc(=O)c(C(=O)N2CCC(c3ccncc3)C2)c1O (single isomer, unassigned) [Example 230, 2-(cyclopropylmethyl)-1-(2,6-dimethoxyphenyl)-6-hydroxy-5-[3-(pyridin-4-yl)pyrrolidine-1-carbonyl]-1,4-dihydropyrimidin-4-one] | 10 to 100 nM
COc1cccc(OC)c1-n1c(Cc2ccc(F)cc2)nc(=O)c(C(=O)N2CCC(c3ccccc3F)C2)c1O (single isomer, unassigned) [Example 231, 1-(2,6-dimethoxyphenyl)-2-[(4-fluorophenyl)methyl]-5-[3-(2-fluorophenyl)pyrrolidine-1-carbonyl]-6-hydroxy-1,4-dihydropyrimidin-4-one] | 10 to 100 nM
COc1cccc(OC)c1-n1c(-c2cncc(C)c2)nc(=O)c(C(=O)N2CCC(c3ccc(F)cc3)C2)c1O (single isomer, unassigned) [Example 232, 1-(2,6-dimethoxyphenyl)-5-[3-(4-fluorophenyl)pyrrolidine-1-carbonyl]-6-hydroxy-2-(5-methylpyridin-3-yl)-1,4-dihydropyrimidin-4-one] | 0.01 to 10 nM
COc1cccc(OC)c1-n1c(-c2cncc(C)c2)nc(=O)c(C(=O)N2CCC(c3ccccc3F)C2)c1O (single isomer, unassigned) [Example 233, 1-(2,6-dimethoxyphenyl)-5-[3-(2-fluorophenyl)pyrrolidine-1-carbonyl]-6-hydroxy-2-(5-methylpyridin-3-yl)-1,4-dihydropyrimidin-4-one] | 0.01 to 10 nM
COc1ccccc1C1CCN(C(=O)c2c(O)n(-c3c(OC)cccc3OC)c(-c3cncc(C)c3)nc2=O)C1 (single isomer, unassigned) [Example 234, 1-(2,6-dimethoxyphenyl)-6-hydroxy-5-[3-(2-methoxyphenyl)pyrrolidine-1-carbonyl]-2-(5-methylpyridin-3-yl)-1,4-dihydropyrimidin-4-one] | 0.01 to 10 nM
COc1cccc(OC)c1-n1c(-c2cccc(C)n2)nc(=O)c(C(=O)N2CCC(c3ncc(F)cc3F)C2)c1O (single isomer, unassigned) [Example 235, 5-[3-(3,5-difluoropyridin-2-yl)pyrrolidine-1-carbonyl]-1-(2,6-dimethoxyphenyl)-6-hydroxy-2-(6-methylpyridin-2-yl)-1,4-dihydropyrimidin-4-one] | 0.01 to 10 nM
COc1cccc(OC)c1-n1c(-c2cccc(C)n2)nc(=O)c(C(=O)N2CCC(c3ccccc3F)C2)c1O (single isomer, unassigned) [Example 236, 1-(2,6-dimethoxyphenyl)-5-[3-(2-fluorophenyl)pyrrolidine-1-carbonyl]-6-hydroxy-2-(6-methylpyridin-2-yl)-1,4-dihydropyrimidin-4-one] | 0.01 to 10 nM
COc1cccc(OC)c1-n1c(-c2cccc(Cl)c2)nc(=O)c(C(=O)N2CCC(c3ccccc3C#N)C2)c1O (single isomer, unassigned) [Example 237, 2-{1-[2-(3-chlorophenyl)-1-(2,6-dimethoxyphenyl)-6-hydroxy-4-oxo-1,4-dihydropyrimidine-5-carbonyl]pyrrolidin-3-yl}benzonitrile] | 0.01 to 10 nM
COc1cccc(OC)c1-n1c(-c2cccc(Cl)c2)nc(=O)c(C(=O)N2CCC(c3ncc(F)cc3F)C2)c1O (single isomer, unassigned) [Example 238, 2-(3-chlorophenyl)-5-[3-(3,5-difluoropyridin-2-yl)pyrrolidine-1-carbonyl]-1-(2,6-dimethoxyphenyl)-6-hydroxy-1,4-dihydropyrimidin-4-one] | 0.01 to 10 nM
COc1cccc(OC)c1-n1c(-c2cc(C)ccn2)nc(=O)c(C(=O)N2CCC(c3ccccc3F)C2)c1O (single isomer, unassigned) [Example 239, 1-(2,6-dimethoxyphenyl)-5-[3-(2-fluorophenyl)pyrrolidine-1-carbonyl]-6-hydroxy-2-(4-methylpyridin-2-yl)-1,4-dihydropyrimidin-4-one] | 0.01 to 10 nM
COc1cccc(OC)c1-n1c(-c2cccc(C)c2)nc(=O)c(C(=O)N2CCC(c3c(F)cccc3F)C2)c1O (single isomer, unassigned) [Example 241, 5-[3-(2,6-difluorophenyl)pyrrolidine-1-carbonyl]-1-(2,6-dimethoxyphenyl)-6-hydroxy-2-(3-methylphenyl)-1,4-dihydropyrimidin-4-one] | 0.01 to 10 nM
COc1cccc(OC)c1-n1c(-c2cccc(C)c2)nc(=O)c(C(=O)N2CCC(c3ccccc3C#N)C2)c1O (single isomer, unassigned) [Example 242, 2-{1-[1-(2,6-dimethoxyphenyl)-6-hydroxy-2-(3-methylphenyl)-4-oxo-1,4-dihydropyrimidine-5-carbonyl]pyrrolidin-3-yl}benzonitrile] | 0.01 to 10 nM
COc1cccc(OC)c1-n1c(-c2cncc(Cl)c2)nc(=O)c(C(=O)N2CCC(c3ccccc3C#N)C2)c1O (single isomer, unassigned) [Example 243, 2-{1-[2-(5-chloropyridin-3-yl)-1-(2,6-dimethoxyphenyl)-6-hydroxy-4-oxo-1,4-dihydropyrimidine-5-carbonyl]pyrrolidin-3-yl}benzonitrile] | 0.01 to 10 nM
COc1cccc(OC)c1-n1c(-c2cccc(C)c2)nc(=O)c(C(=O)N2CCC(c3ncc(F)cc3F)C2)c1O (single isomer, unassigned) [Example 244, 5-[3-(3,5-difluoropyridin-2-yl)pyrrolidine-1-carbonyl]-1-(2,6-dimethoxyphenyl)-6-hydroxy-2-(3-methylphenyl)-1,4-dihydropyrimidin-4-one] | 0.01 to 10 nM
COc1cccc(-c2nc(=O)c(C(=O)N3CCC(c4ncccc4F)C3)c(O)n2-c2c(OC)cccc2OC)c1 (single isomer, unassigned) [Example 245, 1-(2,6-dimethoxyphenyl)-5-[3-(3-fluoropyridin-2-yl)pyrrolidine-1-carbonyl]-6-hydroxy-2-(3-methoxyphenyl)-1,4-dihydropyrimidin-4-one] | 0.01 to 10 nM
COc1cccc(-c2nc(=O)c(C(=O)N3CCC(c4ncc(F)cc4F)C3)c(O)n2-c2c(OC)cccc2OC)c1 (single isomer, unassigned) [Example 246, 5-[3-(3,5-difluoropyridin-2-yl)pyrrolidine-1-carbonyl]-1-(2,6-dimethoxyphenyl)-6-hydroxy-2-(3-methoxyphenyl)-1,4-dihydropyrimidin-4-one] | 0.01 to 10 nM
COc1cccc(OC)c1-n1c(-c2cncc(Cl)c2)nc(=O)c(C(=O)N2CCC(c3c(F)cccc3F)C2)c1O (single isomer, unassigned) [Example 247, 2-(5-chloropyridin-3-yl)-5-[3-(2,6-difluorophenyl)pyrrolidine-1-carbonyl]-1-(2,6-dimethoxyphenyl)-6-hydroxy-1,4-dihydropyrimidin-4-one] | 0.01 to 10 nM
COc1cccc(OC)c1-n1c(-c2cnn(C)c2)nc(=O)c(C(=O)N2CCC(c3c(F)cccc3F)C2)c1O (single isomer, unassigned) [Example 249, 5-[3-(2,6-difluorophenyl)pyrrolidine-1-carbonyl]-1-(2,6-dimethoxyphenyl)-6-hydroxy-2-(1-methyl-1H-pyrazol-4-yl)-1,4-dihydropyrimidin-4-one] | 0.01 to 10 nM
COc1cccc(OC)c1-n1c(-c2ccn(C)n2)nc(=O)c(C(=O)N2CCC(c3c(F)cccc3F)C2)c1O (single isomer, unassigned) [Example 251, 5-[3-(2,6-difluorophenyl)pyrrolidine-1-carbonyl]-1-(2,6-dimethoxyphenyl)-6-hydroxy-2-(1-methyl-1H-pyrazol-3-yl)-1,4-dihydropyrimidin-4-one] | 0.01 to 10 nM
COc1cccc(OC)c1-n1c(-c2ccc(C)nc2)nc(=O)c(C(=O)N2CCC(c3c(F)cccc3F)C2)c1O (single isomer, unassigned) [Example 252, 5-[3-(2,6-difluorophenyl)pyrrolidine-1-carbonyl]-1-(2,6-dimethoxyphenyl)-6-hydroxy-2-(6-methylpyridin-3-yl)-1,4-dihydropyrimidin-4-one] | 0.01 to 10 nM
COc1cccc(OC)c1-n1c(-c2ccnc(C)c2)nc(=O)c(C(=O)N2CCC(c3ccc(F)cc3F)C2)c1O (single isomer, unassigned) [Example 254, 5-[3-(2,4-difluorophenyl)pyrrolidine-1-carbonyl]-1-(2,6-dimethoxyphenyl)-6-hydroxy-2-(2-methylpyridin-4-yl)-1,4-dihydropyrimidin-4-one] | 0.01 to 10 nM
